The values that follow come from US12404261B2, “Compounds and compositions for treating conditions associated with cGAS” (Novartis AG, priority 2020, dated 2025).

Each structure is given as a SMILES string. pIC50: −log10 of the molar value.

The target in this assay is human truncated cGAS enzyme (147-522 human cGAS) (Homo sapiens (Human), UniProt Q8N884). Nature of the assay: Quantification of cGAS protein inhibition (cGAMP formation measured by LC-MS/MS). It is filed as biochemical. How it is done: A reagent buffer was prepared in filtered and autoclaved water according to the following: • 50 mM Tris-buffer pH 7.5 (1 M Tris-buffer pH 7.5, Invitrogen, Cat. No. 15567-027); • 50 mM NaCl (5 M NaCl, Sodium Chloride Solution, Sigma, 59222C-); • 5 mM MgCl2 (1 M MgCl2, Sigma, M1028); • 0.1 mM ZnCl2 (Zinc Chloride [7646-85-7], powder, Cell Culture Tested, Sigma, Z-0152); and • 0.001% Tween 20 (TWEEN 20, Sigma Aldrich, P1379-).
A buffer for the cGAS enzyme was prepared in filtered and autoclaved water according to the following: • 50 mM Tris-buffer pH 7.5; • 5 mM MgCl2; and • 0.001% Tween 20.
Compounds were dispensed to a […]. The human truncated cGAS enzyme (4.2 mg/mL 147-522 human cGAS, MW 43,909 g/mol) was stored in 50 mM Tris, 500 mM NaCl, 5% (v/v) glycerol at pH 8 and diluted in the cGAS buffer enzyme shortly before use. The enzyme solution was transferred into the reagent buffer to give a final concentration of 30 nM. The reaction was started by mixing the enzyme with ISD (a 45 bp double stranded DNA, MW 27,670 g/mol, 5 mM), GTP and ATP to a final concentration of 5 μM, 0.5 mM and 0.5 mM respectively in a final volume of 10 μl. The reaction plates were then centrifuged at 1000 rpm for 1 minute and incubated at room temperature for 1 h. After 1 h of incubation, [^5Ns]-2′3′-cGAMP to a final concentration of 200 nM and 30 μL of 100% acetonitrile/0.175% of TFA were added to the reaction mixture. The plates were centrifuged at 1000 rpm for 1 minute before being sealed for 3 seconds at 170° C. using a ThermoScientific sealer (ALPS™ 50V) and an aluminum sealing cover (Pierce Seal, 4titude, Product Code: 4TI-0531).
The concentration of cGAMP was measured on a LC-MS/MS system consisting of a THERMO Dionex Ultimate LC system with a high pressure pump, an autosampler, a column heating compartment (Reinach, Switzerland) and a SCIEX Triple Quad 5500 (Framingham, MA, USA) mass spectrometer for detection. The sample plates were centrifuged for 10 minutes at 2000 rpm. Up to three plates were placed in the autosampler for injection. An aliquot of 10 μL of each sample was injected on an XBridge BEH Amide 3.5 μm, 2.1×50 mm column (P/N 186004859) with an XBridge BEH Amide 5 μm 2.1×5 mm VanGuard Cartridge (P/N 186007760) pre-column (both WATERS, MA, USA) held at 40° C. An isocratic flow of 1.0 mL/min solvent (60% ACN, 8 mM ammonium acetate, 5 mM ammonium hydroxide, 0.04% acetic acid) was applied and sprayed into the ion source of the mass spectrometers. The MS parameters were optimized based on the properties of the compounds to be detected and run in positive multi-reaction mode (MRM) based on the mass transitions. LC and MS parameters were also optimized to allow for a sample-to-sample measuring time of approximately 75 sec and a run time of 8 hours per 384-well plate. All data were analyzed with Excel; and the dose response curves were generated using the auto fitting function of XLfit. The IC50 was determined by plotting the cGAMP concentration ratio (cGAMP divided by the internal standard [^15Ns]-2′3′-cGAMP) versus the concentration of compound.

Setting [1] is: reported for the potential mixture of co-existing tautomers and/or racemates.
Where [2] appears, read: reported for the potential mixture in solution of co-existing tautomers and/or racemates.

Chain of human truncated cGAS enzyme (147-522 human cGAS) (Q8N884 147-522): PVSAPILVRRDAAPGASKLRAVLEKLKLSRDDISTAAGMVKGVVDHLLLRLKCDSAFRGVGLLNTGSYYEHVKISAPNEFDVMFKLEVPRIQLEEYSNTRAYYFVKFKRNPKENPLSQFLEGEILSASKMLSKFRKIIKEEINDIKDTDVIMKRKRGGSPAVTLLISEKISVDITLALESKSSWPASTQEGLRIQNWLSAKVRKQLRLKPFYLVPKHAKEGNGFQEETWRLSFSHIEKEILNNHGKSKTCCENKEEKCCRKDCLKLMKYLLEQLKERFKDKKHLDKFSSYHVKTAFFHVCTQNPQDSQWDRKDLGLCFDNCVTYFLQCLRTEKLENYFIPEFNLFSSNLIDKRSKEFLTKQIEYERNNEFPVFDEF

Turning to `CCOC(=O)c1nnc(-c2[nH]c3c(Cl)c(Cl)ccc3c2-c2cn[nH]c2)[nH]1` [Example 21, ethyl 5-(6,7-dichloro-3-(1H-pyrazol-4-yl)-1H-indol-2-yl)-4H-1,2,4-triazole-3-carboxylate], the pIC50 under setting [1] was 7.52.
Consider `COCC(O)c1nnc(-c2c(-n3ccnc3)c3cc(OC)c(Cl)c(F)c3n2C)[nH]1` (stereo not drawn) [Example 83a, 1-(5-(6-chloro-7-fluoro-3-(1H-imidazol-1-yl)-5-methoxy-1-methyl-1H-indol-2-yl)-4H-1,2,4-triazol-3-yl)-2-methoxyethan-1-ol], for which, under setting [1], the pIC50 was 7.20.
Take `FC(F)Oc1cc2c(-n3ccnc3)c(-c3nnc(C(F)(F)F)[nH]3)[nH]c2cc1Cl` [Example 112, 6-chloro-5-(difluoromethoxy)-3-(1H-imidazol-1-yl)-2-(5-(trifluoromethyl)-4H-1,2,4-triazol-3-yl)-1H-indole]: under setting [2], the pIC50 is 6.18.
As to `Oc1cc(-c2c(-c3nnc(C(F)(F)F)[nH]3)[nH]c3c(Cl)c(Cl)ccc23)n[nH]1` [Example 76, 3-(6,7-dichloro-2-(5-(trifluoromethyl)-4H-1,2,4-triazol-3-yl)-1H-indol-3-yl)-1H-pyrazol-5-ol], under setting [1], the pIC50 was 5.38.
The same measure, in the same setting: for `COc1cc2c(-c3cn[nH]c3)c(-c3nnc(C(=O)N(C)C)[nH]3)n(C)c2c(F)c1Cl` [Example 2, 5-(6-chloro-7-fluoro-5-methoxy-1-methyl-3-(1H-pyrazol-4-yl)-1H-indol-2-yl)-N,N-dimethyl-4H-1,2,4-triazole-3-carboxamide] the value was 7.34.
With `CNC(COC)c1nnc(-c2c(-n3ccnc3)c3cc(OC)c(Cl)c(F)c3n2C)[nH]1` (racemic) [Example 125, 1-(5-(6-chloro-7-fluoro-3-(1H-imidazol-1-yl)-5-methoxy-1-methyl-1H-indol-2-yl)-4H-1,2,4-triazol-3-yl)-2-methoxy-N-methylethan-1-amine], under setting [2], the pIC50 was 7.13.
Consider `COc1cc2c(-n3ccnc3)c(-c3nnc(OC(C)C)[nH]3)n(C)c2c(F)c1Cl` [Example 85, 6-chloro-7-fluoro-3-(1H-imidazol-1-yl)-2-(5-isopropoxy-4H-1,2,4-triazol-3-yl)-5-methoxy-1-methyl-1H-indole], for which the negative-log IC50 (pIC50) under setting [1] is 7.04.
`COC(=O)Cc1nnc(-c2[nH]c3c(Cl)c(Cl)ccc3c2-c2cn[nH]c2)[nH]1` [Example 29, methyl 2-(5-(6,7-dichloro-3-(1H-pyrazol-4-yl)-1H-indol-2-yl)-4H-1,2,4-triazol-3-yl)acetate]: the pIC50 under setting [1] was 6.66.
Take `COc1cc2c(-c3cn[nH]c3)c(-c3nnc(C(F)(F)F)[nH]3)[nH]c2cc1Cl` [Example 24, 6-chloro-5-methoxy-3-(1H-pyrazol-4-yl)-2-(5-(trifluoromethyl)-4H-1,2,4-triazol-3-yl)-1H-indole]: the pIC50 under setting [1] was 7.16.
Turning to `COc1cc2c(-c3cn[nH]c3)c(-c3nnc(C(C)=O)[nH]3)n(C)c2c(F)c1Cl` [Example 60, 1-(5-(6-chloro-7-fluoro-5-methoxy-1-methyl-3-(1H-pyrazol-4-yl)-1H-indol-2-yl)-4H-1,2,4-triazol-3-yl)ethan-1-one], under setting [1], the pIC50 was 7.49.
On to `COCC(F)(F)c1nnc(-c2c(-n3ccnc3)c3cc(OC)c(Cl)c(C#N)c3n2C)[nH]1` [Example 55, 6-chloro-2-(5-(1,1-difluoro-2-methoxyethyl)-4H-1,2,4-triazol-3-yl)-3-(1H-imidazol-1-yl)-5-methoxy-1-methyl-1H-indole-7-carbonitrile], for which, under setting [1], the negative-log IC50 (pIC50) is 7.26.
Take `COc1cc2c(-n3ccnc3)c(-c3nnc(C(F)(F)F)[nH]3)[nH]c2cc1Cl` [Example 107, 6-chloro-3-(1H-imidazol-1-yl)-5-methoxy-2-(5-(trifluoromethyl)-4H-1,2,4-triazol-3-yl)-1H-indole]: the pIC50 under setting [2] was 7.10.
Turning to `COc1cc2c(-c3cn[nH]c3)c(-c3nnc(C(F)(F)F)[nH]3)[nH]c2c(F)c1Cl` [Example 4, 6-chloro-7-fluoro-5-methoxy-3-(1H-pyrazol-4-yl)-2-(5-(trifluoromethyl)-4H-1,2,4-triazol-3-yl)-1H-indole], the pIC50 under setting [1] was 7.48.
In the case of `COc1cc2c(-n3ccnc3)c(-c3nnc(C(F)(F)F)[nH]3)n(C)c2cc1Cl` [Example 114, 6-chloro-3-(1H-imidazol-1-yl)-5-methoxy-1-methyl-2-(5-(trifluoromethyl)-4H-1,2,4-triazol-3-yl)-1H-indole], the negative logarithm of the IC50 (pIC50) under setting [2] was 6.85.
For the molecule `COc1cc2c(-n3ccnc3)c(-c3nnc(C(=O)N(C)C)[nH]3)n(C)c2c(F)c1F` [Example 104, 5-(6,7-difluoro-3-(1H-imidazol-1-yl)-5-methoxy-1-methyl-1H-indol-2-yl)-N,N-dimethyl-4H-1,2,4-triazole-3-carboxamide], under setting [2], the pIC50 was 6.50.
With `N#Cc1cc2c(-c3cn[nH]c3)c(-c3nnc(C(F)(F)F)[nH]3)[nH]c2c(F)c1Cl` [Example 6, 6-chloro-7-fluoro-3-(1H-pyrazol-4-yl)-2-(5-(trifluoromethyl)-4H-1,2,4-triazol-3-yl)-1H-indole-5-carbonitrile], the pIC50 under setting [1] was 6.82.
`COCc1nnc(-c2c(-n3ccnc3)c3cc(OC)c(Cl)c(C#N)c3n2C)[nH]1` [Example 54, 6-chloro-3-(1H-imidazol-1-yl)-5-methoxy-2-(5-(methoxymethyl)-4H-1,2,4-triazol-3-yl)-1-methyl-1H-indole-7-carbonitrile]: the negative logarithm of the IC50 (pIC50) under setting [1] is 7.12.
`COc1cc2c(-c3cn[nH]c3)c(-c3nnc(C(C)F)[nH]3)n(C)c2c(F)c1Cl` (stereo not drawn) [Example 72, 6-chloro-7-fluoro-2-(5-(1-fluoroethyl)-4H-1,2,4-triazol-3-yl)-5-methoxy-1-methyl-3-(1H-pyrazol-4-yl)-1H-indole]: the pIC50 under setting [1] is 7.21.
In the case of `CN[C@H](COC)c1nnc(-c2c(-n3ccnc3)c3cc(OC)c(Cl)c(F)c3n2C)[nH]1` [Example 125b, (S)-1-(5-(6-chloro-7-fluoro-3-(1H-imidazol-1-yl)-5-methoxy-1-methyl-1H-indol-2-yl)-4H-1,2,4-triazol-3-yl)-2-methoxy-N-methylethan-1-amine], the pIC50 under setting [2] is 6.74.
As for `COCCNC(C)c1nnc(-c2c(-n3ccnc3)c3cc(OC)c(Cl)c(F)c3n2C)[nH]1` (stereo not drawn) [Example 129, 1-(5-(6-chloro-7-fluoro-3-(1H-imidazol-1-yl)-5-methoxy-1-methyl-1H-indol-2-yl)-4H-1,2,4-triazol-3-yl)-N-(2-methoxyethyl)ethan-1-amine], under setting [2], the negative-log IC50 (pIC50) is 6.12.
As for `Cn1c(-c2nnc(C(F)(F)F)[nH]2)c(-n2ccnc2)c2cc(Cl)c(Cl)cc21` [Example 108, 5,6-dichloro-3-(1H-imidazol-1-yl)-1-methyl-2-(5-(trifluoromethyl)-4H-1,2,4-triazol-3-yl)-1H-indole], under setting [2], the negative-log IC50 (pIC50) is 6.55.
With `COc1cc2c(-n3ccnc3)c(-c3nnc(C(=O)N(C)C)[nH]3)n(C)c2c(C#N)c1Cl` [Example 103, 5-(6-chloro-7-cyano-3-(1H-imidazol-1-yl)-5-methoxy-1-methyl-1H-indol-2-yl)-N,N-dimethyl-4H-1,2,4-triazole-3-carboxamide], the pIC50 under setting [2] is 6.77.
Take `COC[C@H](c1nnc(-c2c(-n3ccnc3)c3cc(OC)c(Cl)c(F)c3n2C)[nH]1)N(C)C` [Example 124b, (S)-1-(5-(6-chloro-7-fluoro-3-(1H-imidazol-1-yl)-5-methoxy-1-methyl-1H-indol-2-yl)-4H-1,2,4-triazol-3-yl)-2-methoxy-N,N-dimethylethan-1-amine]: the negative logarithm of the IC50 (pIC50) under setting [2] was 6.85.
Turning to `COc1cc2c(-n3ccnc3)c(-c3nnc(C(O)C(F)(F)F)[nH]3)n(C)c2c(F)c1Cl` (stereo not drawn) [Example 98, 1-(5-(6-chloro-7-fluoro-3-(1H-imidazol-1-yl)-5-methoxy-1-methyl-1H-indol-2-yl)-4H-1,2,4-triazol-3-yl)-2,2,2-trifluoroethan-1-ol], the negative logarithm of the IC50 (pIC50) under setting [1] was 7.43.

As usually defined, the pIC50 is −log10 of the IC50, conventionally taken in molar units.
